Among the test systems are NCI/ADR-RES; KM12; CCRF-CEM; HCT-15; SK-MEL-2; ACHN; LOX IMVI; RXF 393; SR; NCI-H23; NCI-H460; PC-3; SN12C; OVCAR-3; HT-29; HCC 2998; HOP-62; K562; Malme-3M; OVCAR-5.
What all share (assay): NCI tumour cell line growth inhibition, 48 h

SMILES strings stand for the structures.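 All cell lines were grown in 96-well plates and treated with compound for 48 hours. GI50 marks 50% less growth.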 Active and inactive are the calls of the source. No stated cut-off is given here; in the data, active = GI50 up to about 1.1 µM and inactive = higher. Some results are limits rather than exact numbers.

As for `NC1CCC(N(CC(=O)O)CC(=O)O)C(N(CC(=O)O)CC(=O)O)C1` (stereo not given), the GI50 is > 100 µM (inactive) in the experiment on NCI/ADR-RES; > 100 µM (inactive) in the experiment on KM12; > 100 µM (inactive) with CCRF-CEM; more than 100 µM in the experiment with HCT-15; > 100 µM (inactive) in the experiment on SK-MEL-2; > 100 µM (inactive) in the experiment with ACHN. The GI50 with LOX IMVI, with RXF 393, in the experiment on SR, in the experiment on NCI-H23, with NCI-H460 and with PC-3 was > 100 µM (inactive) throughout. Further, the GI50 in the experiment on SN12C, with OVCAR-3, in the experiment on HT-29, in the experiment on HCC 2998, in the experiment with HOP-62 and in the experiment with K562 was > 100 µM (inactive) each time. Also, the GI50 in the experiment with Malme-3M and in the experiment with OVCAR-5 was > 100 µM (inactive) each time.
`COc1cccc2c3ccccc3c3nc[nH]c3c12`: the GI50 with NCI/ADR-RES was 46.3 µM (inactive); in the experiment on KM12, 18.7 µM (inactive); with CCRF-CEM, 12.4 µM (inactive); in the experiment on HCT-15, 27.7 µM; in the experiment on SK-MEL-2, 58.3 µM (inactive); in the experiment on ACHN, 44.2 µM (inactive). The GI50 is 33.8 µM (inactive) in the experiment with LOX IMVI; 17.5 µM (inactive) with RXF 393; 14.6 µM (inactive) with SR; > 100 µM (inactive) in the experiment on NCI-H23; 23.7 µM (inactive) in the experiment on NCI-H460; 30.8 µM (inactive) with PC-3. The GI50 with SN12C was > 66.5 µM (inactive); in the experiment with OVCAR-3, > 100 µM (inactive); with HT-29 it was 31.6 µM (inactive); with HCC 2998, 23.9 µM (inactive); in the experiment with HOP-62 it was 54.3 µM (inactive); in the experiment with K562, 12.4 µM (inactive). In addition, the GI50 in the experiment on Malme-3M was 36.1 µM (inactive); in the experiment on OVCAR-5, 55.3 µM (inactive).
In the case of `CC(=O)O[C@H]1C(=O)[C@@]2(C)C(C(OC(=O)c3ccccc3)[C@]3(O)C[C@H](OC(=O)C(OC(=O)CCCC(=O)NCCCN(C)C)C(NC(=O)c4ccccc4)c4ccccc4)C(C)=C1C3(C)C)C1(OC(C)=O)COC1C[C@@H]2O` (stereo not given in full), the GI50 was 5.02 µM (inactive) with NCI/ADR-RES; < 0.01 µM (active) with KM12; < 0.01 µM (active) with CCRF-CEM; 0.406 µM in the experiment on HCT-15; < 0.01 µM (active) in the experiment on SK-MEL-2; 0.652 µM (active) in the experiment on ACHN. For the same compound, the GI50 was < 0.01 µM (active) with LOX IMVI; 0.0171 µM (active) in the experiment with RXF 393; < 0.01 µM (active) in the experiment on SR; < 0.01 µM (active) in the experiment on NCI-H23; < 0.01 µM (active) with NCI-H460; < 0.01 µM (active) with PC-3. Besides, the GI50 in the experiment on SN12C is < 0.0122 µM (active); with OVCAR-3 it was < 0.01 µM (active); with HT-29 it was < 0.01 µM (active); with HCC 2998, < 0.01 µM (active); with HOP-62 it was 0.016 µM (active); with K562 it was < 0.01 µM (active). The results for the GI50 with Malme-3M and in the experiment on OVCAR-5 were < 0.01 µM (active) and < 0.0139 µM (active), respectively.
With `Clc1ccc(COC(Cn2ccnc2)c2ccc(Cl)cc2Cl)cc1` (stereo not given) [ECONAZOLE NITRATE], the GI50 in the experiment on NCI/ADR-RES was 5.42 µM (inactive); in the experiment on KM12, 12.1 µM (inactive); in the experiment on CCRF-CEM, 5.87 µM (inactive); in the experiment with HCT-15, 12.8 µM; with SK-MEL-2, 15 µM (inactive); in the experiment on ACHN it was 12.8 µM (inactive). Further, the GI50 in the experiment on LOX IMVI was 9.57 µM (inactive); with RXF 393, 14.1 µM (inactive); with SR, 3.49 µM (inactive); in the experiment with NCI-H23, 13.2 µM (inactive); in the experiment on NCI-H460, 10.7 µM (inactive); with PC-3, 9.16 µM (inactive). In addition, the GI50 with SN12C is 12.1 µM (inactive); with OVCAR-3, 11.5 µM (inactive); with HT-29, 8.49 µM (inactive); with HCC 2998 it was 15.6 µM (inactive); in the experiment with HOP-62, 15.5 µM (inactive); in the experiment with K562, 4.62 µM (inactive). Further, the figures for the GI50 in the experiment on Malme-3M and with OVCAR-5 were 16.4 µM (inactive) and 14.5 µM (inactive), respectively.
Turning to `CC(C)(C)c1cc(C=C(C#N)C#N)cc(C(C)(C)C)c1O` [TYRPHOSTIN A9], the GI50 was 0.299 µM (active) in the experiment with NCI/ADR-RES; 0.395 µM (active) in the experiment on KM12; 0.33 µM (active) in the experiment on CCRF-CEM; 0.366 µM with HCT-15; 0.365 µM (active) in the experiment with SK-MEL-2; 0.356 µM (active) in the experiment on ACHN. The GI50 in the experiment with LOX IMVI was 0.641 µM (active); with RXF 393, 2.55 µM (inactive); with SR, 0.396 µM (active); with NCI-H23, 0.809 µM (active); in the experiment with NCI-H460, 0.171 µM (active); with PC-3 it was 0.256 µM (active). Moreover, the GI50 in the experiment with SN12C was 0.191 µM (active); with OVCAR-3 it was 0.258 µM (active); in the experiment on HT-29 it was 0.375 µM (active); in the experiment on HCC 2998, 0.456 µM (active); with HOP-62, 0.405 µM (active); in the experiment with K562 it was 0.305 µM (active). The results for the GI50 with Malme-3M and with OVCAR-5 were 0.439 µM (active) and 4.03 µM (inactive), respectively.
